Data published in paper PMC12387469, “Dolabellane Diterpenoids from Soft Coral Clavularia viridis with Anti-Inflammatory Activities” (Marine Drugs, 2025).

Assays:
[1] = Cytotoxic effect in BV-2 cells, Cell Counting Kit-8 (CCK-8) assay; assay type: cell-based; conditions: mouse, BV-2 microglia cells
Method: Cells were pretreated with or without compounds for 2 h and then induced with 40 μg/mL LPS for another 48 h. […] The absorbance was then measured at a wavelength of 450 nm with a microplate reader (Thermo Fisher Scientific, Marietta, OH, USA). The cell proliferation was expressed as a ratio of control.

[2] = test system: NO production in LPS-stimulated BV2 cells; test: Inhibition of NO production in LPS-stimulated BV2 cells (Griess reagent); conditions: Mus musculus; for inhibition at 20 µM: BV-2, read-out: NO Inhibitory Activity % Inhibition (20 μM); for IC50: BV-2, read-out: NO Inhibitory Activity IC50
Method: To evaluate the anti-inflammatory effect, all compounds were screened on an LPS-stimulated BV2 model to determine the inhibitory effects against NO production [21].
The BV-2 mouse microglia cell line was purchased from the Cell Bank of Shanghai Institute of Biochemistry and Cell Biology, Chinese Academy of Sciences (Shanghai, China), and was cultured in Dulbecco’s modified Eagle medium (DMEM, Gibco Invitrogen Corp., Suzhou, China) supplemented with 10% fetal bovine serum (FBS), 100 units/mL penicillin, and 100 mg/mL streptomycin. The cells were placed at 37 °C in a humidified incubator containing 5% CO2.
The inhibitory activity of the isolated compounds toward NO production was determined using the Griess reagent system (Beyotime). Cells were cultured in each well of 96-well plates at a density of 5 × 10^4 cells/well with 100 mL of DMEM for 24 h. Test samples dissolved in DMSO and diluted with DMEM were added, as well as 2 mg/mL LPS as a stimulus. The final drug concentration was 50 μM with 1% DMSO. Wells treated with only LPS served as model controls, and wells treated with neither LPS nor test samples served as blank controls (all contained 1% DMSO). After 24 h incubation, half of the medium (50 mL) in each well was harvested.

For `CC1=C2C(O)CC3(C)CCC(C)CC(=O)CC(C)CC(OC1=O)C23` (stereo not shown) [Compound 1, Clavirolide W], which CC50 at 50 h [1] is on record?
Its CC50 at 50 h is > 50 µM.

What about the inhibition at 20 µM [2] of the same molecule?
The inhibition at 20 µM was 15.1 ± 2.4%.

What does the source list for `CC1=C2CCC3(C)CCC(C)CC(=O)CC(C)CC(OC1=O)C23OO` (stereo not shown) [Compound 2, Clavirolide X]?
CC50 at 50 h [1]: > 50 µM; inhibition at 20 µM [2]: 36.4 ± 1.7%

What does the source list for `CC1=CC(=O)C=C(C)CC2OC(=O)C(C)=C3CCC(C)(CC1)C32` (stereo not shown) [Compound 3, Clavirolide Y]?
CC50 at 50 h [1]: > 50 µM; inhibition at 20 µM [2]: 42.7 ± 3.5%; IC50 [2]: 27 ± 0.6 µM

Which CC50 at 50 h [1] does the source give for `CC1=CCC2(C)CCC3=C(C)C(=O)OC(CC(C)CC(=O)C1)C32OO` (stereo not shown) [Compound 4, Clavirolide Z] here?
Its CC50 at 50 h is > 50 µM.

What about the inhibition at 20 µM [2] of the same molecule?
Its inhibition at 20 µM is 29 ± 2.8%.

Which CC50 at 50 h [1] does the source give for `CC1=CC(OO)C2(C)CCC3=C(C)C(=O)OC(CC(C)CC(=O)C1)C32` (stereo not shown) [Compound 5, clavularol A] here?
Its CC50 at 50 h is > 50 µM.

What about the inhibition at 20 µM [2] of the same molecule?
The inhibition at 20 µM was 26.8 ± 3.6%.

For `CC1=CC(=O)CC(C)=CC(O)C2C(C(C)(C)OO)=CCC2(C)CC1` (stereo not shown) [Compound 6, clavularol B], which CC50 at 50 h [1] is on record?
Its CC50 at 50 h is > 50 µM.

And the inhibition at 20 µM [2]?
Its inhibition at 20 µM is 14.6 ± 1.2%.

Which results are given for `C=C1CCC=C(C)CC(O)C2C(C)(CC1)CC1OC12C(C)(C)O` (stereo not shown) [Compound 7, clavularol C]?
CC50 at 50 h [1]: > 50 µM; inhibition at 20 µM [2]: 24 ± 3.8%

What does the source list for `C=C1CC[C@@H]2O[C@@]2(C)C[C@@H](O)C2=C(C(C)(C)O)CC[C@@]2(C)CC1` [Compound 8, Clavularol D]?
CC50 at 50 h [1]: > 50 µM; inhibition at 20 µM [2]: 35.9 ± 4.2%

With `C=C1CCC2OC2(C)CC(O)C2=C(C(C)(C)O)CCC2(C)CC1` (stereo not shown) [Compound 9, Clavularol E] as the molecule, how does the CC50 at 50 h [1] read?
The CC50 at 50 h was > 50 µM.

What about the inhibition at 20 µM [2] of the same molecule?
The inhibition at 20 µM was 12.6 ± 2.6%.

With `C=C1CC[C@@H]2O[C@@]2(C)C[C@@H](O)[C@@H]2C(C(C)(C)O)=CC[C@@]2(C)CC1` [Compound 10, clavularol F] as the molecule, how does the CC50 at 50 h [1] read?
The CC50 at 50 h was > 50 µM.

And the inhibition at 20 µM [2]?
The inhibition at 20 µM was 68.9 ± 3.6%.

What about the IC50 [2] of the same molecule?
The IC50 was 18.3 ± 0.6 µM.

What does the source list for `C=C1CC[C@H]2O[C@]2(C)C[C@@H](O)[C@H]2[C@](C)(CC1)CC[C@@]2(O)C(=C)C` [Compound 11, Clavularol G]?
CC50 at 50 h [1]: > 50 µM; inhibition at 20 µM [2]: 18.4 ± 2.8%

For `C=C1CCC(O)C(C)=CC2OC(C)(C)C3=C2C(C)(CC1)CC3` (stereo not shown) [Compound 12, Clavularol H], which CC50 at 50 h [1] is on record?
The CC50 at 50 h was > 50 µM.

What about the inhibition at 20 µM [2] of the same molecule?
The inhibition at 20 µM was 48.8 ± 4.2%.

What about the IC50 [2] of the same molecule?
The IC50 was 20.3 ± 0.3 µM.

For `C=C1CCC=C(C)CC(O)C2C(C(C)(C)O)=CCC2(C)CC1` (stereo not shown) [Compound 13, clavularinlide E], which CC50 at 50 h [1] is on record?
The CC50 at 50 h was > 50 µM.

And the inhibition at 20 µM [2]?
The inhibition at 20 µM was 45.6 ± 3.5%.

What about the IC50 [2] of the same molecule?
Its IC50 is 20.3 ± 0.3 µM.

Which results are given for `C=C1CCC=C(C)CC(O)C2=C(C(C)(C)O)CCC2(C)CC1` (stereo not shown) [Compound 14, clavudiol A]?
CC50 at 50 h [1]: > 50 µM; inhibition at 20 µM [2]: 25.4 ± 2.4%

Which CC50 at 50 h [1] does the source give for `CC1=C2CC[C@@]3(C)CC[C@H](C)CC(=O)C[C@@H](C)C[C@@H](OC1=O)[C@H]23` [Compound 15, clavirolide C] here?
Its CC50 at 50 h is > 50 µM.

What about the inhibition at 20 µM [2] of the same molecule?
The inhibition at 20 µM was 48.3 ± 3.6%.

And the IC50 [2]?
Its IC50 is 23.4 ± 0.4 µM.

With `[H]/N=C(/NC)NCCC[C@H](N)C(=O)O` [L-NMMA, L-NG-monomethyl arginine, reference compound] as the molecule, how does the inhibition at 20 µM [2] read?
The inhibition at 20 µM was 76.7 ± 4.2%.

And the IC50 [2]?
The IC50 was 17.8 ± 0.6 µM.
